From PMC9814779, “A triple farnesoid X receptor and peroxisome proliferator-activated receptor α/δ activator reverses hepatic fibrosis in diet-induced NASH in mice” (Communications Chemistry, 2020)

Test system: GAN DIO-NASH mice
Experiment: DIO NASH model in mice (GAN diet)
Settings: for animals with fibrosis worsening / animals with improvement in lobular inflammation / animals with reversed fibrosis: animals/group; for inflammatory cells and inflammatory foci in the liver: compared to vehicle; for liver Galectin-3 (Gal3) and liver CD45: markers of inflammation
Description: The DIO NASH model was performed by the contract research organization Gubra (Hørsholm, Denmark) on a fee-for-service basis. All animal experiments were conducted in accordance with Gubra’s bioethical guidelines, which are fully compliant to internationally accepted principles for the care and use of laboratory animals. The animals were checked minimum once daily for signs of abnormal behavior, abnormal locomotor activity, ataxia, or clinical signs of disease (lack of grooming, raised fur, signs of pain upon handling, loss of excessive body weight).
Male C57BL/6JRj mice (purchased from Janvier Labs, France at 5 weeks of age) were used for the study. […] Mice received the Gubra AMLN NASH (GAN; D09100310, Research Diet, US; 40% fat (primarily palm oil), 40% carbohydrate (20% fructose), and 2% cholesterol) diet for 46 weeks before start of the treatment. Prior to treatment, all animals underwent liver biopsy for histological conformation of liver disease (steatosis score ≥2 and fibrosis stage ≥1) using the non-alcoholic fatty liver disease activity scoring (NAS) and fibrosis staging system. Randomization and stratification to treatment was performed according to quantitative collagen staining (PSR). GAN DIO-NASH mice (n = 16 per group) received treatment (PO) with vehicle, OCA (30 mg/kg), or 41 (10 mg/kg, BID) for 12 weeks. Water containing 1% HPMC/Tween 80 (99:1) served as vehicle. Mice were then sacrificed by cardiac puncture under isoflurane anesthesia for histopathological and biochemical analysis.
For pre-biopsies, mice were anesthetized by inhalation anesthesia using isoflurane (2–3%). A small abdominal incision was made in the midline and the left lateral lobe of the liver was exposed. A cone-shaped wedge of liver tissue (approximately 50 mg) was excised from the distal portion of the lobe and fixated in 10% neutral buffered formalin (10%) for histology. The cut surface of the liver was instantly electrocoagulated using bipolar coagulation (ERBE VIO 100 electrosurgical unit). The liver was returned to the abdominal cavity, the abdominal wall was sutured, and the skin was closed with staplers. […] TG, TC, ALT, and AST levels were determined from blood samples collected at week 4 of treatment in heparinized tubes. Plasma was separated and stored at −80 °C until analysis. […] After termination by heart puncture, livers were collected and weighed. Specific liver samples and biopsies were dissected and processed. The liver was divided into left lateral lobe, medial lobe, right lateral lobe, and caudal lobe. The left lateral lobe was used for the pre-biopsy (not applicable at termination). The liver post biopsy (~200 mg, <0.7 × 0.5 cm) was cut 4 mm from the pre-biopsy site and with an edge. The tissue was collected in paraformaldehyde. The medial lobe was sectioned and snap-frozen in liquid nitrogen for later analysis. One piece (25 ± 5 mg) was dissected and used for TG/TC analysis. […] Liver samples were fixed in formalin, paraffin embedded, and sections were stained. For H&E staining, the slides were incubated in Mayer’s Hematoxylin (Dako), washed in tap water, stained in Eosin Y solution (Sigma-Aldrich), […], and cover-slipped. For PSR staining, the slides were incubated in Weigert’s iron hematoxylin (Sigma-Aldrich), washed in tap water, stained in PSR (Sigma-Aldrich), and washed twice in acidified water. Excess water was removed by shaking the slides, and the slides were then dehydrated in three changes of 100% ethanol, cleared in xylene, and cover-slipped. […] Briefly, after antigen retrieval and blocking of endogenous peroxidase activity, slides were incubated with primary antibody. The primary antibody was detected using a polymeric horseradish peroxidase–linker antibody conjugate. Next, the primary antibody was visualized with 3,3′diaminobenzidine as chromogen. Finally, sections were counterstained in hematoxylin and cover-slipped. Samples were scored for NAS following the criteria outlined in[37].

[1] = 41 10 mg/kg b.i.d., OCA 30 mg/kg
[2] = 12 weeks of treatment, 41 10 mg/kg b.i.d., OCA 30 mg/kg
[3] = 12 weeks, 41 10 mg/kg b.i.d., OCA 30 mg/kg

Compound | plasma biochemical parameters after 4 weeks of treatment [1] | plasma ALT, AST and triglycerides (TG) at termination [2] | plasma total cholesterol (TC) at termination (12 weeks of treatment, OCA 30 mg/kg) | liver weight, liver TG and liver TC content [3] | steatosis, hepatic fat content [3] | animals not completing the study (OCA 30 mg/kg, one animal) | animals with fibrosis worsening [3] | animals with improvement in lobular inflammation [3] | animals with reversed fibrosis [3] | inflammatory cells and inflammatory foci in the liver (12 weeks) | liver Galectin-3 (Gal3) and liver CD45 (12 weeks) | food intake and body weight (12 weeks, 41 10 mg/kg b.i.d., vs. OCA or vehicle) | liver picrosirius red (PSR), pre vs. post treatment (after the treatment period, 41 10 mg/kg b.i.d.) | fibrosis markers PSR, Col1a1 and α-SMA (compared to vehicle-treated animals, 12 weeks)
CC[C@H]1[C@@H](O)[C@@H]2[C@H](CC[C@]3(C)[C@@H]([C@H](C)CCC(=O)O)CC[C@@H]23)[C@@]2(C)CC[C@@H](O)C[C@@H]12 [OCA, 6α-ethylchenodeoxycholic acid, reference compound] | reduced total cholesterol (TC) plasma levels | not different between groups | reduced TC levels | lowered liver weight, liver TG, and liver TC | strongly reduced hepatic fat content and steatosis score | found dead during the second week of the treatment phase | 4/15 | 8/15 | 2/15 | decreased the number of inflammatory cells and inflammatory foci | reduced by both treatments | – | – | –
CC(C)(C)c1ccc(C(=O)Nc2cccc(CCC(=O)O)c2)c(NC(=O)c2ccc(-c3ccco3)cc2)c1 [compound 41, 3-(3-[4-{tert-Butyl}-2-{4-(2-furyl)}benzamido]phenyl)propanoic acid] | not significantly different between the groups | not different between groups | – | did not differ from vehicle-treated mice | no pronounced effect on steatosis | – | 1/16 | 5/16 | 6/16 | decreased the number of inflammatory cells and inflammatory foci | reduced by both treatments | no difference in food intake and body weight | significant reduction of liver picrosirius red (PSR) | decreased
